{"source": "patent US7786097B2", "about": "“Tricyclic compounds, compositions and methods” (Pfizer Inc., priority 2007, dated 2010)", "key": {"[1]": {"system": "Mouse Collagen-Induced Arthritis (mCIA)", "assay": "Therapeutic mouse collagen-induced arthritis (mCIA) model", "type": "in vivo, Male DBA/J mice", "conditions": "mice, dosing day 34 through day 49", "description": "Mouse Collagen-induced arthritis is a commonly used chronic, preclinical model of rheumatoid arthritis in which joint swelling and bone destruction occur following immunization with type II collagen. Reduction of disease incidence and severity has been shown previously to be predictive of disease-modification and signs and symptoms mitigation, respectively, in a clinical setting.\nIn the therapeutic mCIA model, induction of disease incidence and severity was synchronized via LPS stimulation. Male DBA/J mice were immunized with 100 ug of bovine type II collagen (bCII) on day 0. All mice received an intraperitoneal injection of 20 μg of LPS on day 28 and disease was allowed to develop through day 34. At day 34, all mice had disease (incidence=100%) with an average severity score of seven. Dosing of compounds was initiated in the therapeutic mode on day 34 and continued through day 49. Different treatments were compared by measuring the decrease in incidence (i.e., resolution of disease) and the decrease in severity of paw swelling over time."}, "[2]": {"system": "IL-1β production in human whole blood", "assay": "Ex vivo LPS-stimulated human whole blood, IL-1β", "type": "cell-based", "conditions": "LPS 100 ng/ml, 22 hours, one donor", "description": "Venous blood from human donors was collected as 10 ml aliquots in tubes containing sodium heparin (BD Vacutainer from Becton Dickinson and Company, Franklin Lakes, N.Y.). Blood was added to sterile polystyrene round bottom 96-well tissue culture plates (Corning Costar) at 100 μl/well, omitting the outside wells. Media (RPMI Medium 1640 with L-glutamine, Invitrogen Corporation, Carlsbad, Calif.) was added to the blood in 90 μl aliquots for a total volume of 190 μl. Outside wells were filled with 200 μl of media. Blood was placed in a humidified 37° C. incubator with 5% CO2 while compounds were prepared (nearly 60 minutes).\nCompounds were prepared from 10 mM stock solutions in dimethylsulfoxide (DMSO, Sigma-Aldrich). […] Final DMSO and ethanol concentrations in the assay were 0.1% and 1.5%. The samples were gently triturated twice to mix and replaced in the incubator. LPS stock (E. coli serotype 0111:B4, Sigma-Aldrich), stored in aliquots of 100 μg/ml in RPMI at −20° C., was diluted 1/50 in RPMI to make a working stock solution. After 60 minutes of incubation, 10 μl of the prepared LPS working stock was added to the blood to a final concentration of 100 ng/ml, omitting wells to be used as negative control. The samples were again gently triturated and the plates incubated overnight for 22 hours. Following incubation, the blood was centrifuged at 1500×g for 5 minutes and the plasma removed to either freeze at −20° C. or assay for cytokine release.\nIL-1β, IFNγ, IL-6, and TNFα protein levels were measured using Meso Scale assay kits (Meso Scale Discovery, Gaithersburg, Md.). Reagents were allowed to come to room temperature. Meso Scale plates were blocked with 30 μl of human plasma/serum assay diluent with gentle shaking for 60 minutes at room temperature. Plates were washed 3× with wash buffer (PBS, Invitrogen Corporation, with 0.05% Tween-20, Sigma-Aldrich). Calibrators for standard curves were prepared in human plasma/serum assay diluent as a […] serial dilution to achieve final concentrations ranging from 50000 pg/ml to 3.2 pg/ml. Samples and calibrators were added at 20 μl/well, then incubated at room temperature with gentle shaking for 90 minutes. Plates were again washed 3 times with wash buffer. Detection antibody was diluted in human plasma/serum antibody diluent to 1 μg/ml and added to the plate at 20 μl/well. Plates were incubated as before for 60 minutes and washed again. Read Buffer T<4×) was diluted 1:1 with mqH2O to 2 times concentration and 150 μl added to each well. Plates were analyzed on the SECTOR Imager 6000 (Meso Scale Discovery) to generate raw signal values.\nIL-1β, IFN-γ, IL-6, and TNFα sample values were verified to be within the calibrator standard curves. Individual values were compared to positive and negative controls (vehicle treated blood with LPS and vehicle treated blood without LPS, respectively) to generate % inhibition. Triplicate values were averaged for each donor. The values for two donors were averaged (only one donor was used for IL-1β) and graphed using 4-parameter fit curves in the GraFit 5.0.11 application."}, "[3]": {"system": "Cortical bone formation rate (BFR)", "assay": "Cortical bone histomorphometry, bone formation rate (BFR)", "type": "in vivo", "conditions": "AUC 0-4 hr, mice", "description": "During the in-life portion of each study, mice received two intraperitoneal (i.p.) injections (20 mg/kg, […]) of calcein (C-0875; Sigma-Aldrich, St. Louis, Mo.) on days 1 and 26 for bone histomorphometry measurements. Calcein incorporates into the bone mineral and allows measurement of bone formation rate. Calcein was dissolved in 2% sodium bicarbonate. During the tissue harvest, the left tibiae were excised and cleaned for cortical histomorphometry measurements. After all skin and muscle were removed, tibiae were placed in 70% ethanol 4° C.) in the dark for a minimum of 24 hours.\nGround transverse sections were used for histomorphometric analysis of cortical bone. Bones were sectioned using a low-speed saw (Isomet, Buehler, Lake Bluff, Ill.) equipped with a diamond wafer blade. The end of each tibia was removed proximal to tibia-fibula synostosis and a […] cross-section was cut. Using a roughened glass plate and a cork, sections were ground to […] until transparent and all labels were distinguishable under a fluorescent microscope. Sections were dehydrated using the following solutions for a minimum of two minutes each: 1) 70% ethanol, 2) 95% ethanol, 3) 100% ethanol, 4) 50/50 ethanol/xylene, and 5) xylene (twice) (#534056; Sigma-Aldrich, St. Louis, Mo.). Sections were mounted using Eukitt Quick Mounting Medium (#03989, Sigma-Aldrich, St. Louis, Mo.) after which coverslip was applied. Using the Osteomeasure Bone Analysis Program (Osteometrics, Inc., Decatur, Ga.), bone formation rate was calculated by tracing the 1st and […] fluorescent labels and the inner and outer perimeter of the bone. Bone formation rate was calculated by the following equation: (Inter-label width/Label interval)*(Labeled perimeter/Bone perimeter). At least five samples were measured from each treatment group in each study."}}}
{"smiles": "C[C@]12C=CC(=O)C=C1CC[C@@H]1[C@@H]2[C@@H](O)C[C@@]2(C)[C@H]1CC[C@]2(O)C(=O)CO", "note": "[Prednisolone]", "values": [{"measurement": "Therapeutic mCIA (ED80 dose)", "setting": "[1]", "result": 5.5, "unit": "mg/kg"}, {"measurement": "inhibition at 0.000457247 µM", "setting": "[2]; 0.457247 nM", "result": 9.65, "unit": "%"}, {"measurement": "inhibition at 0.00137174 µM", "setting": "[2]; 1.371742 nM", "result": 15.1, "unit": "%"}, {"measurement": "inhibition at 0.00411523 µM", "setting": "[2]; 4.115226 nM", "result": 21, "unit": "%"}, {"measurement": "inhibition at 0.0123457 µM", "setting": "[2]; 12.34568 nM", "result": 33.6, "unit": "%"}, {"measurement": "inhibition at 0.037037 µM", "setting": "[2]; 37.03704 nM", "result": 37.7, "unit": "%"}, {"measurement": "inhibition at 0.111111 µM", "setting": "[2]; 111.1111 nM", "result": 73.2, "unit": "%"}, {"measurement": "inhibition at 0.333333 µM", "setting": "[2]; 333.3333 nM", "result": 92.9, "unit": "%"}, {"measurement": "inhibition at 1 µM", "setting": "[2]; 1000 nM", "result": 94.9, "unit": "%"}, {"measurement": "Cortical bone formation rate (BFR) EAUC50", "setting": "[3]", "result": 90, "unit": "ng·h/mL"}, {"measurement": "Cortical bone formation rate (BFR) EAUC80", "setting": "[3]", "result": 600, "unit": "ng·h/mL"}]}
